# From patent EP0377642B1, “HERBICIDES FOR WEED CONTROL IN RICE” (E.I. DU PONT DE NEMOURS AND COMPANY, priority 1987, dated 1989)
# Legend:
# Format in all cases: in vivo
# Cyperus difformis [1] = assay: Herbicidal efficacy alone and with 2,4-D in Malaysia, applied 30 days after seeding (Table 8); conditions: 22 days after treatment
# Excerpt: (§1) Methyl 2-[[[[(4-methoxy-6-methyl-1,3,5-triazin-2-yl)amino]carbonyl]amino]sulfonyl]benzoate (Compound 1) and mixtures thereof with other compounds were applied as a spray (using a hand sprayer) to rice (either transplanted or direct seeded) in several rice growing areas in Southeast Asia and in the U.S. Tables 1-28 contain the results of these tests and clearly exemplify the utility of this invention. The details of each application are included in the appropriate table. [drawing 2]
# FIMBRISTYLIS MILIACEA [2] = assay: as above; conditions: 22 days after treatment
# Excerpt: as §1
# Marsilea crenata = assay: as above; conditions: 22 days after treatment
# Excerpt: as §1
# Monochoria vaginalis [3] = assay: as above; conditions: 22 days after treatment
# Excerpt: as §1
# Scirpus grossus = assay: as above; conditions: 22 days after treatment
# Excerpt: as §1
# Sphenoclea zeylanica [4] = assay: as above; conditions: 22 days after treatment
# Excerpt: as §1
# Cyperus difformis [5] = assay: Herbicidal efficacy with Bensulfuron methyl and 2,4-D in Thailand (Table 18); conditions: 1500 GAI/HA; 13 days after treatment
# Excerpt: as §1
# Ludwigia linifolia [6] = assay: as above; conditions: 1500 GAI/HA; 13 days after treatment
# Excerpt: as §1
# Sphenoclea zeylanica [7] = assay: as above; conditions: 1500 GAI/HA; 13 days after treatment
# Excerpt: as §1
# rice [8] = assay: as above; conditions: 1500 GAI/HA; 13 days after treatment
# Excerpt: as §1
# Cuperus difformis = assay: Herbicidal efficacy with Bensulfuron methyl and 2,4-D in Thailand (Table 19); conditions: 1500 GAI/HA; 13 days after treatment
# Excerpt: as §1
# Ludwigia linifolia [9] = assay: as above; conditions: 1500 GAI/HA; 13 days after treatment
# Excerpt: as §1
# Sphenoclea zeylanica [10] = assay: as above; conditions: 1500 GAI/HA; 13 days after treatment
# Excerpt: as §1
# rice [11] = assay: as above; conditions: 1500 GAI/HA; 13 days after treatment
# Excerpt: as §1
# Cuperus iria = assay: Herbicidal efficacy with Bensulfuron methyl and 2,4-D in Thailand (Table 20); conditions: 1500 GAI/HA; 14 days after treatment
# Excerpt: as §1
# FIMBRISTYLIS MILIACEA [12] = assay: as above; conditions: 1500 GAI/HA; 14 days after treatment
# Excerpt: as §1
# Ludwigia linifolia [13] = assay: as above; conditions: 1500 GAI/HA; 14 days after treatment
# Excerpt: as §1
# Sphenoclea zeylanica [14] = assay: as above; conditions: 1500 GAI/HA; 14 days after treatment
# Excerpt: as §1
# rice [15] = assay: as above; conditions: 1500 GAI/HA; 14 days after treatment
# Excerpt: as §1
# FIMBRISTYLIS MILIACEA [16] = assay: Herbicidal efficacy with 2,4-D in Malaysia (Table 21); conditions: 1000 GAI/HA; 42 days after treatment
# Excerpt: as §1
# Ludwigia adscendens = assay: as above; conditions: 1000 GAI/HA; 42 days after treatment
# Excerpt: as §1
# Masilea crenata = assay: as above; conditions: 1000 GAI/HA; 42 days after treatment
# Excerpt: as §1
# Monochoria vaginalis [17] = assay: as above; conditions: 1000 GAI/HA; 42 days after treatment
# Excerpt: as §1
# Saggittaria guayanensis = assay: as above; conditions: 1000 GAI/HA; 42 days after treatment
# Excerpt: as §1
# Scirpus spp. = assay: as above; conditions: 1000 GAI/HA; 42 days after treatment
# Excerpt: as §1
compound,measurement,setting,value
"O=C(O)COc1ccc(Cl)cc1Cl [2,4-D, 2,4-dichlorophenoxyacetic acid]",% CONTROL CD,Cyperus difformis [1]; 500 GAI/HA,95%
same,% CONTROL CD,Cyperus difformis [1]; 1000 GAI/HA,100%
same,% CONTROL FM,FIMBRISTYLIS MILIACEA [2]; 500 GAI/HA,100%
same,% CONTROL FM,FIMBRISTYLIS MILIACEA [2]; 1000 GAI/HA,100%
same,% CONTROL MC,Marsilea crenata; 500 GAI/HA,0%
same,% CONTROL MC,Marsilea crenata; 1000 GAI/HA,0%
same,% CONTROL MV,Monochoria vaginalis [3]; 500 GAI/HA,90%
same,% CONTROL MV,Monochoria vaginalis [3]; 1000 GAI/HA,100%
same,% CONTROL SG,Scirpus grossus; 500 GAI/HA,50%
same,% CONTROL SG,Scirpus grossus; 1000 GAI/HA,75%
same,% CONTROL SZ,Sphenoclea zeylanica [4]; 500 GAI/HA,100%
same,% CONTROL SZ,Sphenoclea zeylanica [4]; 1000 GAI/HA,100%
same,% CONTROL OR INJURY CD,Cyperus difformis [5],100%
same,% CONTROL OR INJURY LL,Ludwigia linifolia [6],100%
same,% CONTROL OR INJURY SZ,Sphenoclea zeylanica [7],90%
same,% CONTROL OR INJURY RICE,rice [8],0%
same,% CONTROL OR INJURY CD,Cuperus difformis,100%
same,% CONTROL OR INJURY LL,Ludwigia linifolia [9],97%
same,% CONTROL OR INJURY SZ,Sphenoclea zeylanica [10],86%
same,% CONTROL OR INJURY RICE,rice [11],0%
same,% CONTROL OR INJURY CI,Cuperus iria,100%
same,% CONTROL OR INJURY FM,FIMBRISTYLIS MILIACEA [12],100%
same,% CONTROL OR INJURY LL,Ludwigia linifolia [13],100%
same,% CONTROL OR INJURY SZ,Sphenoclea zeylanica [14],33.3%
same,% CONTROL OR INJURY RICE,rice [15],0%
same,% CONTROL OR INJURY FM,FIMBRISTYLIS MILIACEA [16],73%
same,% CONTROL OR INJURY LA,Ludwigia adscendens,93%
same,% CONTROL OR INJURY MC,Masilea crenata,56%
same,% CONTROL OR INJURY MV,Monochoria vaginalis [17],100%
same,% CONTROL OR INJURY SG,Saggittaria guayanensis,74%
same,% CONTROL OR INJURY SS,Scirpus spp.,55%
